Source: the supplement of paper PMC10307832

Assays:
Test in all cases: relative viability (nuclei count vs DMSO), 5 days (fraction); higher = more cells survive
17-AAG + Phenformin = compound: C=CCNC1=C2C[C@@H](C)C[C@H](OC)[C@H](O)[C@@H](C)/C=C(\C)[C@H](OC(N)=O)[C@@H](OC)/C=C\C=C(/C)C(=O)NC(=CC1=O)C2=O [17-AAG] + N=C(N)NC(=N)NCCc1ccccc1 [Phenformin] (partner 250 µM)
In short: (§1)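 Lung cancer cell lines in 1536-well plates were dosed by pin tool the day after seeding, either with one drug alone or with a fixed anchor-drug dose plus five library-drug doses (not always all listed) in √10 steps. After 5 days, cells were fixed and their nuclei stained in one step (final 0.05% Triton X-100, 1% formaldehyde, 1 ug/ml Hoechst), then counted on 4× images. Relative viability is the nuclei count in treated wells divided by that in vehicle wells. Values are medians of duplicate plates.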

17-AAG + Lapatinib = compound: C=CCNC1=C2C[C@@H](C)C[C@H](OC)[C@H](O)[C@@H](C)/C=C(\C)[C@H](OC(N)=O)[C@@H](OC)/C=C\C=C(/C)C(=O)NC(=CC1=O)C2=O [17-AAG] + CS(=O)(=O)CCNCc1ccc(-c2ccc3ncnc(Nc4ccc(OCc5cccc(F)c5)c(Cl)c4)c3c2)o1 [Lapatinib] (partner 2 µM)
In short: as §1

17-AAG + Olaparib = compound: C=CCNC1=C2C[C@@H](C)C[C@H](OC)[C@H](O)[C@@H](C)/C=C(\C)[C@H](OC(N)=O)[C@@H](OC)/C=C\C=C(/C)C(=O)NC(=CC1=O)C2=O [17-AAG] + O=C(c1cc(Cc2n[nH]c(=O)c3ccccc23)ccc1F)N1CCN(C(=O)C2CC2)CC1 [Olaparib] (partner 8 µM)
In short: as §1

17-AAG + Trametinib = compound: C=CCNC1=C2C[C@@H](C)C[C@H](OC)[C@H](O)[C@@H](C)/C=C(\C)[C@H](OC(N)=O)[C@@H](OC)/C=C\C=C(/C)C(=O)NC(=CC1=O)C2=O [17-AAG] + CC(=O)Nc1cccc(-n2c(=O)n(C3CC3)c(=O)c3c(Nc4ccc(I)cc4F)n(C)c(=O)c(C)c32)c1 [Trametinib] (partner 0.02 µM)
In short: as §1

| Cell Line | relative viability (17-AAG + Phenformin; first compound 0.00128 µM) | relative viability (17-AAG + Phenformin; first compound 0.004048 µM) | relative viability (17-AAG + Phenformin; first compound 0.0128 µM) | relative viability (17-AAG + Phenformin; first compound 0.04048 µM) | relative viability (17-AAG + Phenformin; first compound 0.128 µM) | relative viability (17-AAG + Lapatinib; first compound 0.00128 µM) | relative viability (17-AAG + Lapatinib; first compound 0.004048 µM) | relative viability (17-AAG + Lapatinib; first compound 0.0128 µM) | relative viability (17-AAG + Lapatinib; first compound 0.04048 µM) | relative viability (17-AAG + Lapatinib; first compound 0.128 µM) | relative viability (17-AAG + Olaparib; first compound 0.00128 µM) | relative viability (17-AAG + Olaparib; first compound 0.004048 µM) | relative viability (17-AAG + Olaparib; first compound 0.0128 µM) | relative viability (17-AAG + Olaparib; first compound 0.04048 µM) | relative viability (17-AAG + Olaparib; first compound 0.128 µM) | relative viability (17-AAG + Trametinib; first compound 0.00128 µM) | relative viability (17-AAG + Trametinib; first compound 0.004048 µM) | relative viability (17-AAG + Trametinib; first compound 0.0128 µM) | relative viability (17-AAG + Trametinib; first compound 0.04048 µM) | relative viability (17-AAG + Trametinib; first compound 0.128 µM) |
| --- | --- | --- | --- | --- | --- | --- | --- | --- | --- | --- | --- | --- | --- | --- | --- | --- | --- | --- | --- | --- |
| NCI-H1944 | 0.187 | 0.194 | 0.127 | 0.12 | 0.114 | 0.795 | 0.889 | 0.646 | 0.482 | 0.169 | 0.4 | 0.413 | 0.383 | 0.335 | 0.137 | 0.452 | 0.368 | 0.379 | 0.24 | 0.155 |
| HARA | 0.443 | 0.456 | 0.367 | 0.418 | 0.113 | 0.694 | 0.811 | 0.692 | 0.831 | 0.325 | 0.891 | 0.78 | 1.02 | 1.18 | 0.18 | 0.893 | 0.598 | 0.81 | 0.66 | 0.149 |
| NCI-H2126 | 0.576 | 0.563 | 0.305 | 0.289 | 0.271 | 0.731 | 0.784 | 0.775 | 0.53 | 0.276 | 0.895 | 0.887 | 0.893 | 0.762 | 0.265 | 0.576 | 0.568 | 0.625 | 0.594 | 0.443 |
| LXF-289 | 0.544 | 0.511 | 0.189 | 0.0865 | 0.0697 | 0.907 | 0.874 | 0.694 | 0.449 | 0.152 | 1.06 | 0.936 | 0.889 | 0.817 | 0.135 | 0.667 | 0.661 | 0.686 | 0.58 | 0.145 |
| NCI-H520 | 0.617 | 0.511 | 0.406 | 0.234 | 0.165 | 0.797 | 0.654 | 0.396 | 0.132 | 0.112 | 0.34 | 0.232 | 0.162 | 0.136 | 0.12 | 0.706 | 0.673 | 0.468 | 0.154 | 0.129 |
| NCI-H1395 | 0.449 | 0.425 | 0.4 | 0.358 | 0.324 | 0.903 | 1.12 | 0.485 | 0.406 | 0.417 | 0.452 | 0.458 | 0.359 | 0.37 | 0.418 | 1.09 | 0.984 | 0.807 | 0.448 | 0.368 |
| NCI-H2170 | 0.408 | 0.453 | 0.297 | 0.163 | 0.135 | 0.281 | 0.283 | 0.24 | 0.234 | 0.197 | 0.663 | 0.565 | 0.466 | 0.129 | 0.12 | 0.958 | 0.843 | 0.91 | 0.402 | 0.134 |
| NCI-H2009 | 0.499 | 0.43 | 0.481 | 0.412 | 0.128 | 1.16 | 0.954 | 0.816 | 0.424 | 0.0895 | 0.699 | 0.712 | 0.7 | 0.295 | 0.0798 | 0.276 | 0.269 | 0.252 | 0.218 | 0.0853 |
